Experimental data as given in the RepoRT retention time repository.

assay: HILIC, Waters ACQUITY UPLC BEH Amide, 100 × 2.1 mm, 1.7 µm; A: water + 0.125% formic acid + 10 mM ammonium formate; B: 5% water + 95% acetonitrile + 0.125% formic acid + 10 mM ammonium formate; gradient (min/%B) 0/100 2/100 7.7/70 9.5/40 10.25/30 12.75/100 17/100; settings: stereoisomer not certain

Row | SMILES | LC retention time [min]
1 | O=Cc1cccc(O)c1 [3-Hydroxybenzaldehyde] | 1.18
2 | CC(O)CC(=O)OC(CC(=O)[O-])C[N+](C)(C)C (centres undefined) [3-Hydroxybutyrylcarnitine] | 7.62
3 | Nc1c(O)cccc1C(=O)CC(N)C(=O)O (centres undefined) [3-Hydroxykynurenine] | 7.35
4 | O=C(O)Cc1cccc(O)c1 [3-Hydroxyphenylacetic acid] | 1.45
5 | NC(Cc1cccc(O)c1)C(=O)O (centres undefined) [3-Hydroxyphenylalanine] | 7.44
6 | O=C(O)C1NCCC1O (centres undefined) [3-Hydroxyproline] | 8.17
7 | O=C(O)CCCCCCC(O)CC(=O)O (centres undefined) [3-Hydroxysebacic acid] | 2.55
8 | CCC(O)CC(=O)O (centres undefined) [3-Hydroxyvaleric acid] | 1.29
9 | O=C(O)Cc1c[nH]c2ccccc12 [3-Indoleacetic acid] | 1.33
10 | N#CCc1c[nH]c2ccccc12 [3-Indoleacetonitrile] | 8.02
11 | O=C(O)CCc1c[nH]c2ccccc12 [3-Indolepropionic acid] | 1.28
12 | CC(C)=CC(=O)NCC(=O)O [3-Methylcrotonylglycine] | 2.95
13 | Cn1c(=N)ccn(C2OC(CO)C(O)C2O)c1=O (centres undefined) [3-Methylcytidine] | 6.99
14 | Cn1cncc1CC(N)C(=O)O (centres undefined) [3-Methylhistidine] | 9.41
15 | CC1C(=O)Nc2ccccc21 (centres undefined) [3-Methyloxyindole] | 1.07
16 | CSCCCN [3-Methylthiopropylamine] | 5.16
17 | Cn1c(=O)ccn(C2OC(CO)C(O)C2O)c1=O (centres undefined) [3-Methyluridine] | 1.12
18 | NC(Cc1ccc(O)c([N+](=O)[O-])c1)C(=O)O (centres undefined) [3-Nitrotyrosine] | 6.88
19 | CCCCCC(O)CC (centres undefined) [3-Octanol] | 8.47
20 | O=C(O)CCP(=O)(O)O [3-Phosphonopropionic acid] | 8.59
21 | OCc1cccnc1 [3-Pyridinemthanol] | 1.41

Row | SMILES | LC retention time [min]
22 | C[Si](C)(C)CCC(=O)O [3-Trimethylsilylpropionic acid] | 5.64
23 | NC(=O)NCCC(=O)O [3-Ureidopropionic acid] | 5.6
24 | CC(C)CCCC(C)C1CCC2C3CC=C4CC(OC(=O)NCCN(C)C)CCC4(C)C3CCC12C (stereo not drawn) [3-beta-Cholest-5-en-3-yl [2-(dimethylamino)ethyl]carbamate] | 2.34
25 | O=c1c(-c2ccc(O)cc2)coc2cc(O)cc(O)c12 [4,5,7-Trihydroxyisoflavone] | 1.27
26 | CC(=O)NCCCC(=O)O [4-Acetamidobutyric acid] | 2.26
27 | CC(=O)CCCC(=O)O [4-Acetylbutyric acid] | 1.24
28 | Nc1ccc(C(=O)O)cc1 [4-Aminobenzoic acid] | 7.49
29 | NCC1CCC(C(=O)O)CC1 (centres undefined) [4-Aminomethylcyclohexanecarboxylic acid] | 6.6
30 | Nc1ccc(O)cc1 [4-Aminophenol] | 1.34
31 | NC(N)=NCCCC(=O)O [4-Guanidinobutyric acid] | 7.72
32 | CCCCCCc1ccc(O)cc1O [4-Hexylresorcinol] | 1.63
33 | CC(=O)CC(C)(C)O [4-Hydroxy-4-methyl-2-pentanone] | 4.88
34 | Cc1cc(O)cc(=O)o1 [4-Hydroxy-6-methyl-2-pyrone] | 1.47
35 | O=Cc1ccc(O)cc1 [4-Hydroxybenzaldehyde] | 1.18
36 | O=C(O)CNC(=O)c1ccc(O)cc1 [4-Hydroxyhippuric acid] | 5.86
37 | N#CC(O)c1ccc(O)cc1 (centres undefined) [4-Hydroxymandelonitrile] | 2.63
38 | CCCCCC(O)C=CC=O (centres undefined) [4-Hydroxynonenal] | 1.07
39 | O=c1cc[nH]c2ccccc12 [4-Hydroxyquinoline] | 1.69
40 | Cc1ncsc1CCO [4-Methyl-5-thiazoleethanol] | 1.21
41 | Cc1cc(=O)oc2cc(O)ccc12 [4-Methylumbelliferone] | 1.22
42 | CC(=O)Oc1ccc2c(C)cc(=O)oc2c1 [4-Methylumbelliferyl acetate] | 1.06

Row | SMILES | LC retention time [min]
43 | O=[N+]([O-])c1cc[n+]([O-])c2ccccc12 [4-Nitroquinoline-N-oxide] | 1.14
44 | Cc1ncc(CO)c(C(=O)O)c1O [4-Pyridoxic acid] | 2.66
45 | O=C(O)c1ccnc2ccccc12 [4-Quinolinecarboxylic acid] | 4.58
46 | O=c1[nH]c(=S)ccn1C1OC(CO)C(O)C1O (centres undefined) [4-Thiouridine] | 2.27
47 | C[N+](C)(C)CCCC(=O)O [4-Trimethylammoniobutanoic acid] | 7.66
48 | CSCC1OC(n2cnc3c(N)ncnc32)C(O)C1O (centres undefined) [5'-Methylthioadenosine] | 2.49
49 | COCC1OC(n2cc(C)c(=O)[nH]c2=O)CC1O (centres undefined) [5'-O-Methylthymidine] | 1.46
50 | CC1CNC(=O)NC1=O (centres undefined) [5,6-Dihydro-5-methyluracil] | 1.57
51 | O=C1CCNC(=O)N1 [5,6-Dihydrouracil] | 1.77
52 | Cc1cc2nc[nH]c2cc1C [5,6-Dimethylbenzimidazole] | 1.82
53 | NC(=O)c1[nH]cnc1N [5-Aminoimidazole-4-carboxamide] | 4.18
54 | NCCCCC(=O)O [5-Aminovaleric acid] | 7.24
55 | CC(C)CCCC(C)C1CCC2C3C(O)C=C4CC(O)CCC4(C)C3CCC12C (stereo not drawn) [5-Cholesten-3-beta-7-alpha-diol] | 3.36
56 | O=c1ncc(F)c[nH]1 [5-Fluro-2-pyrimidone] | 1.77
57 | Nc1[nH]c(=O)ncc1F [5-Flurocytosine] | 4.62
58 | O=C(O)Cc1c[nH]c2ccc(O)cc12 [5-Hydroxy-3-indoleacetic acid] | 1.78
59 | COc1ccc2[nH]cc(CCN)c2c1 [5-Methoxytryptamine] | 4.99
60 | CCCCCCCCCOc1ccc2[nH]cc(CCN)c2c1 [5-Nonyloxytryptamine] | 3.4
61 | O=C(O)CCCCCO [6-Hydroxycaproic acid] | 1.34
62 | CCCCCC=CCC=CCC=CCC=CCCCC(=O)Nc1ccc(O)cc1 [AM 404] | 0.97

Continued, values first:

Row | LC retention time [min] | SMILES
63 | 7.54 | Nc1nc(=O)n(C2OC(CO)C(O)C2O)cc1CO (centres undefined) [5-Hydroxymethylcytidine]
64 | 6.9 | Nc1[nH]c(=O)ncc1CO [5-Hydroxymethylcytosine]
65 | 7.48 | NC(Cc1c[nH]c2ccc(O)cc12)C(=O)O (centres undefined) [5-Hydroxytryptophan]
66 | 5.93 | OCCc1c[nH]c2ccc(O)cc12 [5-Hydroxytryptophol]
67 | 1.32 | COc1ccc2[nH]cc(CC(=O)O)c2c1 [5-Methoxy-3-indoleacetic acid]
68 | 1.07 | COc1c2ccoc2cc2oc(=O)ccc12 [5-Methoxypsoralen]
69 | 1.18 | COc1ccc2[nH]cc(CCO)c2c1 [5-Methoxytryptophol]
70 | 4.72 | COc1cn(C2OC(CO)C(O)C2O)c(=O)[nH]c1=O (centres undefined) [5-Methoxyuridine]
71 | 1.98 | Cc1cn(C2OC(CO)C(O)C2O)c(=S)[nH]c1=O (centres undefined) [5-Methyl-2-thiouridine]
72 | 2.6 | Cc1cn(C2OC(CO)CC2O)c(=O)[nH]c1=O (centres undefined) [5-Methyl-3-deoxyuridine]
73 | 6.39 | Cc1cn(C2OC(CO)C(O)C2O)c(=O)nc1N (centres undefined) [5-Methylcytidine]
74 | 6.62 | Cc1cnc(=O)[nH]c1N [5-Methylcytosine]
75 | 4.19 | Cc1cn(C2OC(CO)C(O)C2O)c(=O)[nH]c1=O (centres undefined) [5-Methyluridine]
76 | 1.26 | Nc1ccc2cn[nH]c2c1 [6-Aminoindazole]
77 | 4.31 | O=c1cnn(C2OC(CO)C(O)C2O)c(=O)[nH]1 (centres undefined) [6-Azuridine]
78 | 1.26 | O=c1cc(-c2ccccc2)oc2ccc(O)cc12 [6-Hydroxyflavone]

Row | LC retention time [min] | SMILES
79 | 7.3 | CC(C)=CCCC(C)O (centres undefined) [6-Methyl-5-hepten-2-ol]
80 | 3.56 | CNc1ncnc2c1ncn2C1OC(CO)C(O)C1O (centres undefined) [6-Methyladenosine]
81 | 1.49 | CSc1ncnc2nc[nH]c12 [6-Methylmercaptopurine]
82 | 7.18 | CC(O)C(O)C1=Nc2c(nc(N)[nH]c2=O)NC1 (centres undefined) [7,8-Dihydrobiopterin]
83 | 7.34 | Cn1c[n+](C2OC(CO)C(O)C2O)c2nc(N)[nH]c(=O)c21 (centres undefined) [7-Methylguanosine]
84 | 1.03 | O=[N+]([O-])c1cccc2cn[nH]c12 [7-Nitroindazole]
85 | 5.11 | Nc1ncnc2c1[nH]c(=O)n2C1CC(O)C(CO)O1 (centres undefined) [8-Oxo-2-deoxyadenosine]
86 | 6.49 | CC12CCC3c4ccc(O)cc4CCC3C1CC(OC1OC(C(=O)O)C(O)C(O)C1O)C2O (centres undefined) [16-Glucuronide-estriol]
87 | 2.02 | O=C(O)CC1C(=O)Nc2ccccc21 (centres undefined) [(2-oxo-2,3-dihydro-1H-indol-3-yl)acetic acid]
88 | 5.77 | CCCC(=O)OC(CC(=O)[O-])C[N+](C)(C)C [(R)-Butyrylcarnitine]
89 | 3.87 | CN1C(=O)CCC1c1ccc[n+]([O-])c1 [(S)-Cotinine N-oxide]
90 | 8.55 | CN(C)C(N)=NCCCC(N)C(=O)O (centres undefined) [ADMA]
91 | 1.11 | CC(C)C1=CC2=CCC3C(C)(C(=O)O)CCCC3(C)C2CC1 (centres undefined) [Abietic acid]
92 | 1.33 | CC(C=CC1(O)C(C)=CC(=O)CC1(C)C)=CC(=O)O (centres undefined) [Abscisic acid]
93 | 9.88 | CC1OC(OC2C(CO)OC(OC3C(CO)OC(O)C(O)C3O)C(O)C2O)C(O)C(O)C1NC1C=C(CO)C(O)C(O)C1O (centres undefined) [Acarbose]
94 | 7.73 | CC(=O)Nc1ccc(OC2OC(C(=O)O)C(O)C(O)C2O)cc1 (centres undefined) [Acetaminophen glucuronide]
